Test results: PubChem BioAssay (NCI)
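Growth conditions: 96-well plates. Treatment: test compound, 48 hours, 5 concentrations. Analysis: linear interpolation between bracketing concentrations; unreached endpoints set to highest concentration. Abbreviation: GI50, concentration required for 50% inhibition of growth. TGI denotes the concentration required for complete inhibition of growth.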

Tests used:
Test in all cases: NCI-60 cell line screen, 48 h
[1] = system: 786-0 renal
[2] = system: MOLT-4 leukemia
[3] = system: RXF 393 renal
[4] = system: SF-539 CNS
[5] = system: SK-MEL-2 melanoma
[6] = system: SK-MEL-28 melanoma
[7] = system: SN12C renal
[8] = system: TK-10 renal
[9] = system: U251 CNS
[10] = system: MALME-3M melanoma

Row | SMILES | TGI [1] | TGI [2] | TGI [3] | TGI [4] | TGI [5] | TGI [6] | TGI [7] | TGI [8] | TGI [9] | TGI [10] | GI50 [1] | GI50 [10] | GI50 [2] | GI50 [3] | GI50 [4] | GI50 [5] | GI50 [6] | GI50 [7] | GI50 [9] | GI50 [8]
1 | Clc1cccc(C2SCc3nc4ccccc4n32)c1Cl (stereo not drawn) | 32.8 µM | 41.9 µM | 29.6 µM | 32.5 µM | 32.2 µM | 35.9 µM | 32.5 µM | 29.2 µM | 31.7 µM |  |  |  |  |  |  |  |  |  |  | 
2 | O=[N+]([O-])C(=C(c1ccccc1)c1ccccc1)[N+](=O)[O-] | 27.7 µM | 22.7 µM | 6.71 µM | 26.5 µM | 6.83 µM | 20.1 µM | 30.9 µM | 33.2 µM | 26.4 µM |  |  |  |  |  |  |  |  |  |  | 
3 | C=C1C(=O)C23C(CC(OC(C)=O)C1[C@@H]2OC(C)=O)C1(C)C(OC(C)=O)CCC(C)(C)C1C[C@@H]3OC(C)=O (stereo partly drawn) | 2.73 µM |  | 0.831 µM | 3.16 µM | 3.37 µM | 3.3 µM | 2.8 µM |  | 2.95 µM | 3.01 µM |  |  |  |  |  |  |  |  |  | 
4 | CC1=C[C@H]2C[C@@]3(C)O[C@@H]([C@]4(C)CC[C@H]([C@@H](C)C(=O)O)OO4)CC3C(C)(C)[C@H]2CC1 (stereo partly drawn) | 4.99 µM |  | 2.53 µM | 3.57 µM | 3.21 µM | 2.95 µM | 2.79 µM | 4.28 µM | 3.01 µM | 2.22 µM |  |  |  |  |  |  |  |  |  | 
5 | COCCn1cc(-c2csc(-c3c[nH]c4ccc(F)cc34)n2)c2cccnc21 | > 100 µM | > 100 µM | > 100 µM | > 100 µM | > 100 µM | > 100 µM | > 100 µM |  | > 100 µM | > 100 µM | 5.12 µM | 4.54 µM | 5.56 µM | 5.91 µM | 8.86 µM | 3.89 µM | 7.73 µM | > 100 µM | 5.14 µM | 
6 | CN(C)c1ccc(/C=N/Nc2ccc(-c3nc4ccccc4[nH]3)cc2)cc1 | 38.6 µM |  |  |  | 26.4 µM |  | > 50 µM | > 50 µM | 21.5 µM |  | 10.6 µM |  |  |  |  | 8.27 µM |  | > 50 µM | 6.3 µM | 47.3 µM
7 | O=C(O)c1oc2ccc([N+](=O)[O-])c3c2c1CCC3 | > 100 µM |  | > 100 µM | > 100 µM | > 100 µM | > 100 µM | > 100 µM | > 100 µM | > 100 µM | > 100 µM |  |  |  |  |  |  |  |  |  | 
8 | C(=C1/CCCCC([n+]2ccccc2)=N1)/c1ccccc1 | > 100 µM | > 100 µM | > 100 µM | > 100 µM | > 100 µM | > 100 µM | > 100 µM |  | > 100 µM | > 100 µM |  |  |  |  |  |  |  |  |  | 
9 | C[P+](C)(CC(F)(F)F)c1ccccc1 | > 100 µM | > 100 µM | > 100 µM | > 100 µM | > 100 µM |  | > 100 µM | > 100 µM | > 100 µM | > 100 µM |  |  |  |  |  |  |  |  |  | 
10 | COc1ccc(-c2nc(N)nc(-c3cc(C)ccc3O)c2Cl)cc1 | > 100 µM | > 100 µM | 99.7 µM | > 100 µM |  | > 100 µM | > 100 µM | 86.4 µM | > 100 µM | > 100 µM |  |  |  |  |  |  |  |  |  | 
11 | Cc1ccc(NC(=O)NC23CC4CC(CC(F)(C4)C2)C3)cc1 | > 100 µM | > 100 µM | > 100 µM | > 100 µM | > 100 µM | > 100 µM |  | > 100 µM | > 100 µM | > 100 µM |  |  |  |  |  |  |  |  |  | 
